In patent publication US5376671A, “Propenoyl-imidazole derivatives” (Bayer Aktiengesellschaft, priority 1992, dated 1994):
In brackets after ≈: the same amount, converted by molar mass.

Tests used:
[1] = target: T1, type 2 angiotensin II receptor (AT2) (Bos taurus, UniProt G5E6F7); assay: Interaction with the type 2 angiotensin II receptor (AT2) on membrane fractions of bovine cerebellum, 125I-angiotensin II binding; details: bovine cerebellum membranes; 125I-angiotensin II about 0.1 nM; 60 min, 37° C.
T1 construct: membrane fractions of bovine cerebellum; purchased NEN DuPont NED-001; host or cells: bovine cerebellum membrane fractions
T1 sequence (G5E6F7 1-362): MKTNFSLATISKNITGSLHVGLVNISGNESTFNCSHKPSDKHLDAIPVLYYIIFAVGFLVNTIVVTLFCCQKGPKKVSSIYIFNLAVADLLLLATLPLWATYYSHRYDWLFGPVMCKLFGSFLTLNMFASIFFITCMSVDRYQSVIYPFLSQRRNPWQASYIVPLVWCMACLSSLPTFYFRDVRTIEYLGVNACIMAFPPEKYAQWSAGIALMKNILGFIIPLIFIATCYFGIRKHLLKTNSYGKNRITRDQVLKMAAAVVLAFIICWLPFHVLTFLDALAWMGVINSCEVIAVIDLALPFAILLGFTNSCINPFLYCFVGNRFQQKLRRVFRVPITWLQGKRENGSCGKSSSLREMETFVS
Experimental: Interaction of the compounds according to the invention with the type 2 angiotensin II receptor (AT2) on membrane fractions of bovine cerebellum
For the test, the AT2 receptor "Drug Discovery System" of NEN DuPont (Catalogue No. NED-001) is used. The test is carried out correspondingly using the test protocol additionally supplied. Receptor binding is carried out in a test volume of 235 μl, which in detail contains ^125 I-angiotensin II (about 0.1 nM), Test buffer (PBS, NaCl, EDTA, PMSF, DTT, DMSO) and the substances to be investigated. After an incubation of 60 min at 37° C., the unbound radioactivity of the samples is separated by means of moistened glass fibre filters (Whatman GF/C) and the bound radioactivity is measured […] in a scintillation cocktail after washing the protein with ice-cold buffer solution (0.9% strength NaCl). The analysis of the raw data was carried out using computer programs for the IC50 or Ki value determination (IC50 value: concentration at which the substance to be investigated causes a 50% inhibition of the specific binding of the radioligand: Ki value: IC50 value corrected for the radioactivity used).

[2] = system: isolated rabbit aorta (contraction induced by angiotensin II); assay: Inhibition of vascular contraction in isolated rabbit aorta rings in vitro, contractions induced by angiotensin II; details: based on the 3rd (submaximal) agonist concentration
Experimental: Rabbits of both sexes are stunned by a blow to the neck and bled out, or in some cases anesthetised with Nembutal (about 60-80 mg/kg i.v.) and sacrificed by opening the thorax. The thorax aorta is taken out, freed from adhering connective tissue, divided into 1.5 mm wide ring segments and individually transferred under an initial loading of about 3.5 g to 10 ml organ baths containing 95% 02 /5% CO2 -aerated Krebs-Henseleit nutrient solution temperature-controlled at 37° C. of the following composition: 119 mmol/l of NaCl: 2.5 mmol/l of CaCl2 ×2 H2 O; 1.2 mmol/l of KH2 PO4; 10 mmol/l of glucose; 4.8 mmol/l of KCl; 1.4 mmol/l of MgSO4 ×7 H2 O and 25 mmol/l of NaHCO3.
The contractions are measured isometrically by Statham UC2 cells by means of bridge amplifiers (ifd Mulheim or DSM Aalen) and digitalised and analysed by means of A/D converters (System 570, Keithley Munich). Agohist dose response curves (DRC) were plotted hourly. With each DRC, 3 or 4 individual concentrations are applied to the baths at an interval of 4 min. After completion of the DRC and subsequent washing-out cycles (16 times, in each case about 5 sec/min with the abovementioned nutrient solution), a 28-minute resting or incubation phase is added in the course of which the contractions usually reach the starting value again.
The height of the 3rd DRC in the normal case is used as a reference quantity for the evaluation of the test substance to be investigated in further passages, which is applied to the baths in the following DRCs in increasing dosage in each case at the start of the incubation time. In this way, each aorta ring is always stimulated for the whole day with the same agohist.
To calculate the IC50 (concentration at which the substance to be investigated causes a 50% inhibition), the effect is in each case based on the 3rd=submaximal agonist concentration.

[3] = system: smooth muscle cells from rats' aortas; assay: Inhibition of proliferation of smooth muscle cells (3H-thymidine incorporation); format: cell-based; details: 10^-6 M, rat aortic smooth muscle cells, 10% FCS
Experimental: Investigation of the inhibition of proliferation of smooth muscle cells by the compounds according to the invention
To determine the antiproliferative action of the compounds, smooth muscle cells are used that have been obtained from rats' aortas by the media explant technique [R. Ross, J. Cell. Biol. 50. 172, 1971]. The cells are innoculated into suitable culture dishes (as a rule 96-hole plates, and cultured at 37° C. for 2-3 days in medium containing added serum, 2 mM L-glutamine and 15 mM HEPES, pH 7.4, in 5% CO2. The cells are then synchronised by withdrawal of serum for 2-3 days and then stimulated into growth by serum or other factors. Test desired compounds are added simultaneously. After 16-20 hours, 1 μCi of ^3 H-thymidine is added, and after a further 4 hours, the incorporation of this substance into the TCA-precipitable DNA of the cells is determined.

[4] = target: T2, angiotensin II receptor on membrane fractions of adrenal gland cortex (bovine) (Bos taurus, UniProt P25104); assay: Interaction with the angiotensin II receptor on membrane fractions of adrenal gland cortex (bovine), 3H-angiotensin II binding; details: 3H-angiotensin II 3-5 nM, 60 min, room temperature
T2 construct: partially purified membrane fractions of bovine AGC using radioactive angiotensin II; from tissue; host or cells: bovine adrenal gland cortex, partially purified membrane fractions
T2 sequence (P25104 1-359): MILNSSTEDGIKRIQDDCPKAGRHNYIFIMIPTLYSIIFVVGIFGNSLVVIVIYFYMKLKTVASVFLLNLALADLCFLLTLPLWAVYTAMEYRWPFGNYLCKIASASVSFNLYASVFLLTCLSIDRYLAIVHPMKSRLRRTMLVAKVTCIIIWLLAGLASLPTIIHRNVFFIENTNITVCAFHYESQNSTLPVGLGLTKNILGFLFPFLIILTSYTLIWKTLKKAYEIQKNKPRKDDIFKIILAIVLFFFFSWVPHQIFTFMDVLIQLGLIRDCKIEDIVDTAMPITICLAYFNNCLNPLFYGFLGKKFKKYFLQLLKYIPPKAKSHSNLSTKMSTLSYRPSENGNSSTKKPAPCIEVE
Source text: Interaction of the compounds according to the invention with the angiotensin II receptor on membrane fractions of adrenal gland cortex (bovine)
Bovine adrenal gland cortices (AGC) which have been freshly removed and carefully freed from gland medulla are comminuted in sucrose solution (0.32M) with the aid of an Ultra-turrax (Janke & Kunkel, Staufen I. B.) to give a coarse membrane homogenate and are partially purified to give membrane fractions in two centrifugation steps. The receptor binding investigations are carried out on partially purified membrane fractions of bovine AGC using radioactive angiotensin II in an assay volume of 0.25 ml which, in detail, contains the partially purified membranes (50-80 μg) ^3 H-angiotensin II (3-5 nM), test buffer solution (50 mM tris, pH 7.2), 5 mM MgCl2 and the substances to be investigated. After an incubation time of 60 min at room temperature, the unbound radioactivity of the samples is separated by means of moistened glass fibre filters (Whatman GF/C) and the bound radioactivity is measured […] in a scintillation cocktail after washing the protein with ice-cold buffer solution (50 mM tris/HCl, pH 7.4, 5% PEG 6000). […]

IC50 against contractions induced by angiotensin II [2]	Ki [4]	SMILES	further results
0.063 mg/L (≈ 0.116 µM)		CCCCc1nc(Cl)c(/C=C(\CC2CCCCC2)C(=O)O)n1Cc1ccc(C(C(=O)O)C2CCCC2)cc1 (racemic) [Example 4]	Ki [1]: 0.827 µM
		CCCCc1nc(Cl)c(/C=C(\CC2CCCCC2)C(=O)OC)n1Cc1ccc(C(C(=O)N[C@H](CO)c2ccccc2)C2CCCC2)cc1 (stereo partly drawn) [Example 5, (E)-2-[4-{2-n-Butyl-4-chloro-5-(3-cyclohexyl-2-methoxyarbonyl-prop-1-en-yl)-1H-imidazol-1-methyl}phenyl]-2-cyclopentyl-acetic acid L-phenylglycinolamide]	inhibition at 1 µM [3]: 90%
	0.75 µM	CCCCc1nc(Cl)c(/C=C(\CC2CCCCC2)C(=O)OC)n1Cc1ccc(C(C(=O)NS(=O)(=O)c2ccc(C)cc2)C2CCCC2)cc1 (stereo not shown) [Example 6, (E)-N-4-Toluenesulphonyl-2-[4-{2-n-butyl-4-chloro-5-(3-cyclohexyl-2-methoxycarbonyl-prop-1-en-yl)-1H-imidazol-1-yl-methyl}phenyl]-2-cyclopentyl-acetamide]	
0.051 mg/L (≈ 0.0735 µM)		CCCCc1nc(Cl)c(/C=C(\CC2CCCCC2)C(=O)O)n1Cc1ccc(C(C(=O)NS(=O)(=O)c2ccc(C)cc2)C2CCCC2)cc1 (stereo not shown) [Example 7]	
	0.08 µM	CCCCc1nc(Cl)c(/C=C(\CC2CCCCC2)C(=O)O)n1Cc1ccc(C(C(=O)N[C@H](CO)c2ccccc2)C2CCCC2)cc1 (stereo partly shown) [Example 8]	
0.046 mg/L (≈ 0.0808 µM)		CCCCc1nc(Cl)c(/C=C(\CC2CCCCC2)C(=O)O)n1Cc1ccc(C(C(=O)O)C2CCCCCC2)cc1 (stereo not shown) [Example 12]	
